These results are taken from PMC9126943, “ADAMTS4-specific MR probe to assess aortic aneurysms in vivo using synthetic peptide libraries” (Nature Communications, 2022).

Where a SMILES comes first, the peptide text is derived from it. Bridges are numbered along the chain shown (N, C = ends). The star is where a group is joined. DOTA = O=C(O)CN1CCN(CC(=O)O)CCN(CC(=O)*)CCN(CC(=O)O)CC1

The target of the experiment is T1, ADAMTS4 (Homo sapiens, UniProt O75173).
T1 construct: This is consistent with the recombinant proteins, we used in the screening process; purchased BioTeZ Berlin-Buch GmbH 30 400 102
T1 sequence (O75173 213-685): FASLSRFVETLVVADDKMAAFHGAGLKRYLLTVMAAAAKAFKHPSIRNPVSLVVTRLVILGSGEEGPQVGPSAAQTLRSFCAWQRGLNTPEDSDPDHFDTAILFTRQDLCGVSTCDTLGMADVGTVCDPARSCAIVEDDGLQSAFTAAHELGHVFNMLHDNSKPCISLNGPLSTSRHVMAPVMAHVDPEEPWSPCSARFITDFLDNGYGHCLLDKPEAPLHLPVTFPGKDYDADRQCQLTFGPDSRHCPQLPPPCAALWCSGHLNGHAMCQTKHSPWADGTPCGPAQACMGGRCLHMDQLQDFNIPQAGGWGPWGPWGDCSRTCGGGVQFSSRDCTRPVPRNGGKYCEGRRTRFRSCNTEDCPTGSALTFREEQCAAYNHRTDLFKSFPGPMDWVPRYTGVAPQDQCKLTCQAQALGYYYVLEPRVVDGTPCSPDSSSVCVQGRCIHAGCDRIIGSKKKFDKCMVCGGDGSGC
Description: MST of earlier manuscript version (RED-tris-NTA labeled protein). Particulars: earlier manuscript version quoted in peer review file; RED-tris-NTA labeled ADAMTS4, FAM-5 labeled peptides; read-out: binding constant (KD). From the text: on the beads. Additionally, we could not find any traces of proteins in the MALDI-TOF-MS […]
We identified one candidate as the most promising binding peptide for ADAMTS4 with the sequence Ser- Cys*-Gly-Arg-Arg-Ser-Cys* (Supp. Fig. 1b, c).
5. “The representation of SPR data needs to be adjusted, additional experimental details have to be added to the Supplemental figures. Please, see the comments in Supplemental for details.” We apologize to the reviewer for this oversight. All data are now added to the supplemental material. SPR was only use for classification to determine whether the peptides represent potential […]
Page 8: For the resulting ADAMTS4- specific probe, we measured a binding constant of 38 nM […]
6. […] The data quality if […]
unfortunately too poor (the amplitude too low; minimal recommended amplitude is 3). Also, why were the FAM-5 labeled peptides used in the combination with the RED-tris-NTA labeled protein? […]
Additionally, we measured the same probe against ADAMTS1 and ADAMTS5 in the same concentration range, and we could not detect binding in this range (Supp. Fig. 2a). […]
R = Ranti−His−Ab ∗ MADAMTS4 ∗ Valencyanti−His−Ab we calculated a Rmax of 5524 µRIU. […]
Before and after the run, a blank was measured. […]
19. […] Using the fluorescence of the labeled […]
We added the sensogram and calculated the protein capture (please refer to question 16).

As for `N=C(N)NCCC[C@@H]1NC(=O)[C@H](CCCNC(=N)N)NC(=O)[C@H](CO)NC(=O)[C@@H](N)CSSC[C@@H](C(=O)N[C@@H](CO)C(=O)NCC(=O)NCC(=O)N[C@@H](CO)C(=O)NCC(=O)NCC(=O)N[C@@H](CCCCNC(=O)CN2CCN(CC(=O)O)CCN(CC(=O)O)CCN(CC(=O)O)CC2)C(=O)NCC(N)=O)NC(=O)CNC1=O` (Gd complex, metal not drawn) [ADAMTS4-specific probe] (H-CSRRGCSGGSGGK(DOTA)G-NH2; disulfide 1-6), the Kd is 0.038 µM.
